“And” between values parts separate entries of the source, which are not always exact repeats. Identical values can stand only once. Toxic doses and inconclusive results are not listed. Rule as the data show it: active = T/C of 150% or more; inactive = T/C below 125%.
System: L1210 leukemia ip in BDF1 mice, survival T/C
Test: NCI In Vivo Anticancer Drug Screen. Data for tumor model L1210 Leukemia (intraperitoneal) in B6D2F1 (BDF1) mice
Conditions: endpoint: mean survival time, higher = longer survival
Procedure, shortened: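 Mice bearing the transplanted tumor received compound or vehicle. Survival of the treated group was divided by that of the vehicle-treated control group to give the ratio.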

[1] = dose: 50.0 mg/kg/injection, schedule: Q01DX009 (ip), vehicle: saline
[2] = dose: 50.0 mg/kg/injection, schedule: Q04DX003 (ip), vehicle: saline
[3] = dose: 100.0 mg/kg/injection, schedule: Q01DX009 (ip), vehicle: saline
[4] = dose: 100.0 mg/kg/injection, schedule: Q04DX003 (ip), vehicle: saline
[5] = dose: 200.0 mg/kg/injection, schedule: Q01DX009 (ip), vehicle: saline
[6] = dose: 200.0 mg/kg/injection, schedule: Q04DX003 (ip), vehicle: saline
[7] = dose: 100.0 mg/kg/injection, schedule: Q01DX001 (ip), vehicle: Klucel (hydroxypropylcellulose) (HPC)
[8] = dose: 200.0 mg/kg/injection, schedule: Q01DX001 (ip), vehicle: Klucel (hydroxypropylcellulose) (HPC)
[9] = dose: 400.0 mg/kg/injection, schedule: Q01DX001 (ip), vehicle: Klucel (hydroxypropylcellulose) (HPC)
[10] = dose: 100.0 mg/kg/injection, schedule: Q01DX001 (ip), vehicle: saline
[11] = dose: 200.0 mg/kg/injection, schedule: Q01DX001 (ip), vehicle: saline
[12] = dose: 400.0 mg/kg/injection, schedule: Q01DX001 (ip), vehicle: saline
[13] = dose: 100.0 mg/kg/injection, schedule: Q01DX009 (ip), vehicle: Klucel (hydroxypropylcellulose) (HPC)
[14] = dose: 100.0 mg/kg/injection, schedule: Q04DX003 (ip), vehicle: Klucel (hydroxypropylcellulose) (HPC)
[15] = dose: 200.0 mg/kg/injection, schedule: Q04DX003 (ip), vehicle: Klucel (hydroxypropylcellulose) (HPC)
[16] = dose: 400.0 mg/kg/injection, schedule: Q01DX009 (ip), vehicle: Klucel (hydroxypropylcellulose) (HPC)
[17] = dose: 400.0 mg/kg/injection, schedule: Q04DX003 (ip), vehicle: Klucel (hydroxypropylcellulose) (HPC)
[18] = dose: 25.0 mg/kg/injection, schedule: Q01DX009 (ip), vehicle: saline
[19] = dose: 12.5 mg/kg/injection, schedule: Q01DX009 (ip), vehicle: Klucel (hydroxypropylcellulose) (HPC)
[20] = dose: 12.5 mg/kg/injection, schedule: Q04DX003 (ip), vehicle: Klucel (hydroxypropylcellulose) (HPC)

Measured: T/C

CCN(CC)CCOB(OCCN(CC)CC)OCCN(CC)CC
inactive: [1] 95 % of control and 101 % of control | [2] 96 % of control | [3] 101 % of control and 110 % of control | dose: 100.0 mg/kg/injection, schedule: Q04DX002 (ip), vehicle: saline 101 % of control and 106 % of control | [4] 96 % of control | [5] 97 % of control and 103 % of control | dose: 200.0 mg/kg/injection, schedule: Q04DX002 (ip), vehicle: saline 101 % of control and 103 % of control | [6] 100 % of control | dose: 400.0 mg/kg/injection, schedule: Q04DX002 (ip), vehicle: saline 95 % of control

CN(C)CCNC(=O)N(C)C
inactive: [3] 95 % of control | [4] 92 % of control | [5] 98 % of control | [6] 100 % of control | dose: 400.0 mg/kg/injection, schedule: Q01DX009 (ip), vehicle: saline 102 % of control | dose: 400.0 mg/kg/injection, schedule: Q04DX003 (ip), vehicle: saline 97 % of control

O=C1NCN(c2ccccc2)C12CCN(CCCS(=O)(=O)c1ccccc1)CC2
inactive: [7] 93 % of control | [8] 94 % of control | [9] 101 % of control

NC1=NC(=S)CS1
inactive: dose: 75.0 mg/kg/injection, schedule: Q04DX003 (ip), vehicle: saline 97 % of control | dose: 150.0 mg/kg/injection, schedule: Q04DX003 (ip), vehicle: saline 94 % of control | dose: 300.0 mg/kg/injection, schedule: Q04DX003 (ip), vehicle: saline 92 % of control

CCOC(Nc1ccccc1[N+](=O)[O-])C(=O)c1ccccc1 (configuration not stated)
inactive: [10] 91 % of control | [11] 86 % of control | [12] 89 % of control

O=C1c2ccccc2C(=O)N1CCl
inactive: [7] 93 % of control | [8] 104 % of control | [9] 114 % of control

Nc1ccc(S(=O)(=O)c2cc(CC(N)C(=O)O)cc(O)c2O)cc1 (configuration not stated)
inactive: dose: 87.5 mg/kg/injection, schedule: Q01DX009 (ip), vehicle: saline 98 % of control | dose: 175.0 mg/kg/injection, schedule: Q01DX009 (ip), vehicle: saline 96 % of control | dose: 350.0 mg/kg/injection, schedule: Q01DX009 (ip), vehicle: saline 86 % of control

O=C(Cl)Oc1cccc2ccccc12
inactive: dose: 50.0 mg/kg/injection, schedule: Q01DX001 (ip), vehicle: saline 108 % of control | [10] 113 % of control | [11] 104 % of control | [12] 98 % of control

O=C1OC(c2cccc(Cl)c2)=N/C1=C\C=C/c1ccccc1
inactive: dose: 100.0 mg/kg/injection, schedule: Q01DX001 (ip), vehicle: carboxymethylcellulose (CMC) 95 % of control | dose: 100.0 mg/kg/injection, schedule: Q01DX009 (ip), vehicle: carboxymethylcellulose (CMC) 89 % of control and 92 % of control | dose: 200.0 mg/kg/injection, schedule: Q01DX009 (ip), vehicle: carboxymethylcellulose (CMC) 87 % of control and 92 % of control | dose: 400.0 mg/kg/injection, schedule: Q01DX001 (ip), vehicle: carboxymethylcellulose (CMC) 93 % of control

CCN(CC)CCN(CC)C(=O)C1C(c2ccccc2)C1c1ccccc1 (configuration not stated)
inactive: dose: 25.0 mg/kg/injection, schedule: Q04DX002 (ip), vehicle: Klucel (hydroxypropylcellulose) (HPC) 102 % of control | dose: 50.0 mg/kg/injection, schedule: Q04DX002 (ip), vehicle: Klucel (hydroxypropylcellulose) (HPC) 102 % of control

Cc1ccc(NC(=S)NN)cc1C
inactive: dose: 50.0 mg/kg/injection, schedule: Q01DX009 (ip), vehicle: Klucel (hydroxypropylcellulose) (HPC) 94 % of control | [13] 100 % of control | [14] 94 % of control | [15] 97 % of control

CCCCCCCC(=O)N(C)OC
inactive: [13] 97 % of control | [14] 89 % of control | [15] 94 % of control | [16] 100 % of control | [17] 92 % of control

CCOC(=O)c1c(O)c(=O)[nH]c2ccccc12
inactive: dose: 100.0 mg/kg/injection, schedule: Q01DX009 (ip), vehicle: saline with Tween-80 97 % of control | dose: 100.0 mg/kg/injection, schedule: Q04DX002 (ip), vehicle: saline with Tween-80 101 % of control | dose: 200.0 mg/kg/injection, schedule: Q01DX009 (ip), vehicle: saline with Tween-80 108 % of control | dose: 200.0 mg/kg/injection, schedule: Q04DX002 (ip), vehicle: saline with Tween-80 118 % of control | dose: 400.0 mg/kg/injection, schedule: Q01DX009 (ip), vehicle: saline with Tween-80 101 % of control | dose: 400.0 mg/kg/injection, schedule: Q04DX002 (ip), vehicle: saline with Tween-80 97 % of control

CCCn1cnc2c(=S)nc(N)[nH]c21
active: dose: 5.0 mg/kg/injection, schedule: Q01DX Z (ip), vehicle: methylcellulose (MC) 152 % of control
inactive: dose: 0.94 mg/kg/injection, schedule: Q01DX Z (ip), vehicle: methylcellulose (MC) 105 % of control | dose: 1.88 mg/kg/injection, schedule: Q01DX Z (ip), vehicle: methylcellulose (MC) 122 % of control | dose: 3.3 mg/kg/injection, schedule: Q01DX Z (ip), vehicle: methylcellulose (MC) 121 % of control | dose: 3.75 mg/kg/injection, schedule: Q01DX Z (ip), vehicle: methylcellulose (MC) 108 % of control | dose: 7.5 mg/kg/injection, schedule: Q01DX Z (ip), vehicle: methylcellulose (MC) 101 % of control | dose: 15.0 mg/kg/injection, schedule: Q01DX Z (ip), vehicle: methylcellulose (MC) 105 % of control

CC1C[N-]1.CC1C[N-]1.[Cl][Pt+2][Cl] (configuration not stated)
inactive: [18] 102 % of control | [1] 103 % of control | [2] 95 % of control | [3] 101 % of control | [4] 98 % of control | [6] 98 % of control

NC(CO)C(=O)O.[Cl-].[Cl-].[Cl-].[Cl-].[Pt+2] (configuration not stated)
inactive: dose: 12.5 mg/kg/injection, schedule: Q01DX009 (ip), vehicle: saline 114 % of control and 117 % of control | [18] 122 % of control | [1] 119 % of control

CC(=O)OC1c2ccccc2C(=O)C1(OC(C)=O)c1ccccc1 (configuration not stated)
inactive: [13] 101 % of control | [14] 97 % of control | dose: 200.0 mg/kg/injection, schedule: Q01DX009 (ip), vehicle: Klucel (hydroxypropylcellulose) (HPC) 107 % of control | [15] 100 % of control | [16] 101 % of control | [17] 102 % of control

Cc1ncc(CO)c(C2NOCc3nscc32)c1O (configuration not stated)
inactive: dose: 3.12 mg/kg/injection, schedule: Q01DX009 (ip), vehicle: Klucel (hydroxypropylcellulose) (HPC) 94 % of control | dose: 3.12 mg/kg/injection, schedule: Q01DX009 (ip), vehicle: other 98 % of control | dose: 6.25 mg/kg/injection, schedule: Q01DX009 (ip), vehicle: other 100 % of control | [19] 89 % of control | dose: 12.5 mg/kg/injection, schedule: Q01DX009 (ip), vehicle: other 107 % of control | [20] 92 % of control

C1CCC2C(C1)C2(N1CCCC1)N1CCCC1 (configuration not stated)
inactive: dose: 6.25 mg/kg/injection, schedule: Q01DX009 (ip), vehicle: Klucel (hydroxypropylcellulose) (HPC) 101 % of control | [19] 100 % of control | [20] 98 % of control | dose: 25.0 mg/kg/injection, schedule: Q01DX009 (ip), vehicle: Klucel (hydroxypropylcellulose) (HPC) 93 % of control and 92 % of control | dose: 25.0 mg/kg/injection, schedule: Q04DX003 (ip), vehicle: Klucel (hydroxypropylcellulose) (HPC) 98 % of control | dose: 50.0 mg/kg/injection, schedule: Q04DX003 (ip), vehicle: Klucel (hydroxypropylcellulose) (HPC) 94 % of control

O=C1c2ccccc2C(=O)C2CC(c3ccccc3)=C(c3ccccc3)CC12 (configuration not stated)
inactive: dose: 100.0 mg/kg/injection, schedule: Q04DX002 (ip), vehicle: Klucel (hydroxypropylcellulose) (HPC) 96 % of control | dose: 200.0 mg/kg/injection, schedule: Q04DX002 (ip), vehicle: Klucel (hydroxypropylcellulose) (HPC) 96 % of control | dose: 400.0 mg/kg/injection, schedule: Q04DX002 (ip), vehicle: Klucel (hydroxypropylcellulose) (HPC) 100 % of control
